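Step 1: Grow cells in 96-well plates. Step 2: Expose to compound for 48 hours at 5 concentrations. Step 3: Interpolate endpoints linearly; if unreached, use highest concentration. TGI: total growth inhibition.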
Key:
Test in all cases: inhibition of tumour cell growth, NCI panel, 48 h
[1] = test system: 786-0 renal
[2] = test system: A549 NSCLC
[3] = test system: HCT-116 colon
[4] = test system: HCT-15 colon
[5] = test system: HOP-62 NSCLC
[6] = test system: MCF7 breast
[7] = test system: NCI-H23 lung
[8] = test system: SNB-19 CNS
[9] = test system: UACC-62 melanoma
[10] = test system: UO-31 renal

C=C(CCC(C(=O)O)C1CCC2(C)C3=C(CCC12C)C1(C)CCC(O)C(C)(C)C1CC3)C(C)C (stereo not given)
TGI [1]: > 100 µM
TGI [2]: > 100 µM
TGI [3]: > 100 µM
TGI [4]: 68.5 µM
TGI [5]: > 100 µM
TGI [6]: > 100 µM
TGI [7]: > 100 µM
TGI [8]: > 100 µM
TGI [9]: > 100 µM
TGI [10]: > 100 µM

CN(C)CCNc1nc2ccccc2c2c1C(=O)c1ccccc1-2
TGI [1]: 3.66 µM
TGI [2]: 2.96 µM
TGI [3]: 1.38 µM
TGI [4]: 1.57 µM
TGI [5]: 3.72 µM
TGI [6]: 1.87 µM
TGI [7]: 1.82 µM
TGI [8]: 5.42 µM
TGI [9]: 0.437 µM
TGI [10]: 3.17 µM

C=CCOn1c(C=C)nc2c(C)cccc21
TGI [1]: 5.83 µM
TGI [2]: 14.4 µM
TGI [3]: 4.97 µM
TGI [4]: 13.9 µM
TGI [5]: 22 µM
TGI [6]: 12.5 µM
TGI [7]: 24.1 µM
TGI [8]: 21.5 µM
TGI [9]: 6.93 µM
TGI [10]: 6.03 µM

O=C(NCCCCl)c1c(O)c2ccccc2[nH]c1=O
TGI [1]: > 100 µM
TGI [2]: > 100 µM
TGI [3]: > 100 µM
TGI [4]: > 100 µM
TGI [5]: > 100 µM
TGI [6]: > 100 µM
TGI [7]: > 100 µM
TGI [8]: > 100 µM
TGI [9]: > 100 µM
TGI [10]: > 100 µM

COc1cc(C2S/C(=C/c3ccccc3)C(=O)N2c2ccc(Cl)cc2)cc(OC)c1OC (stereo not given)
TGI [1]: > 100 µM
TGI [2]: > 100 µM
TGI [3]: > 100 µM
TGI [4]: > 100 µM
TGI [5]: > 100 µM
TGI [6]: > 100 µM
TGI [7]: > 100 µM
TGI [8]: > 100 µM
TGI [9]: > 100 µM
TGI [10]: > 100 µM

CN(Cc1nc2c(N)nc(N)nc2nc1N)c1ccc(C(=O)NC(CCC(=O)O)C(=O)O)cc1 (stereo not given)
TGI [1]: > 100 µM
TGI [2]: > 100 µM
TGI [3]: > 100 µM
TGI [4]: > 100 µM
TGI [5]: > 100 µM
TGI [6]: > 100 µM
TGI [7]: > 100 µM
TGI [8]: > 100 µM
TGI [9]: > 100 µM
TGI [10]: > 100 µM

CNC(=O)OCC1=C(COC(=O)NC)CN(c2ccccc2)C1
TGI [1]: > 100 µM
TGI [2]: > 100 µM
TGI [3]: > 100 µM
TGI [4]: > 100 µM
TGI [5]: > 100 µM
TGI [6]: > 100 µM
TGI [7]: > 100 µM
TGI [8]: > 100 µM
TGI [9]: > 100 µM
TGI [10]: > 100 µM

O=C(O)c1ccccc1-c1ccccc1C(=O)c1ccccc1
TGI [1]: > 100 µM
TGI [2]: > 100 µM
TGI [3]: > 100 µM
TGI [4]: > 100 µM
TGI [5]: > 100 µM
TGI [6]: > 100 µM
TGI [7]: > 100 µM
TGI [8]: > 100 µM
TGI [9]: > 100 µM
TGI [10]: > 100 µM

COc1cccc(N2N=C3c4ccccc4-n4c(nc5ccccc54)C3C2N)c1 (stereo not given)
TGI [1]: > 100 µM
TGI [2]: > 100 µM
TGI [3]: > 100 µM
TGI [4]: > 100 µM
TGI [5]: > 100 µM
TGI [6]: > 100 µM
TGI [7]: > 100 µM
TGI [8]: > 100 µM
TGI [9]: > 100 µM
TGI [10]: > 100 µM

COc1ccc(C[C@H]2COC(=O)[C@@H]2Cc2cc(OC)c(OC)c(OC)c2)cc1OC
TGI [1]: > 100 µM
TGI [2]: > 100 µM
TGI [3]: > 100 µM
TGI [4]: > 100 µM
TGI [5]: > 100 µM
TGI [6]: > 100 µM
TGI [7]: > 100 µM
TGI [8]: > 100 µM
TGI [9]: > 100 µM
TGI [10]: > 100 µM

CCOc1ccc(NC(=S)/N=C/C(C(=O)Nc2ccccc2C)=C(\C)O)cc1
TGI [1]: > 100 µM
TGI [2]: > 100 µM
TGI [3]: > 100 µM
TGI [4]: > 100 µM
TGI [5]: > 100 µM
TGI [6]: > 100 µM
TGI [7]: > 100 µM
TGI [8]: > 100 µM
TGI [9]: > 100 µM
TGI [10]: > 100 µM

COC1=CC2(C=CC1=O)CCN=c1c(O)c3c(c(O)c12)=NC=N3 (stereo not given)
TGI [1]: > 100 µM
TGI [2]: > 100 µM
TGI [3]: > 100 µM
TGI [4]: > 100 µM
TGI [5]: > 100 µM
TGI [6]: > 100 µM
TGI [7]: > 100 µM
TGI [8]: > 100 µM
TGI [9]: > 100 µM
TGI [10]: > 100 µM

CN(C)CCNC(=O)c1cccc2c(NC(CS)C(=O)O)c3ccccc3nc12 (stereo not given)
TGI [1]: > 100 µM
TGI [2]: 66.9 µM
TGI [3]: > 100 µM
TGI [4]: 26.3 µM
TGI [5]: 41.6 µM
TGI [6]: 29.5 µM
TGI [7]: 30.4 µM
TGI [8]: 50.9 µM
TGI [9]: > 100 µM
TGI [10]: 11.8 µM

Reference: PubChem BioAssay (NCI)
